23 substances from paper PMC4917206, “Chemical Modification of Influenza CD8+ T-Cell Epitopes Enhances Their Immunogenicity Regardless of Immunodominance” (PLoS ONE, 2016) can be followed below.

The target in the assay is T1, HLA-A*0301 (Homo sapiens, UniProt P04439).
T1 construct: Soluble MHC was dissolved in PBS containing 0.5 mg/ml bovine γ-globulin; made in house
Format: binding.

Turning to ILRGSVAHK [I WT, reference compound], the “FP binding score, percentage inhibition of tracer peptide binding, 4h” value came to 66% and the “FP binding score, percentage inhibition of tracer peptide binding, 24h” value (from here on “FP binding score, percentage inhibition … 24h”) turned out to be 87%.

Regarding ILRGSV[2-AOC]HK [I65], the “FP binding score, percentage inhibition of tracer peptide binding, 4h” value is reported as 87% and the “FP binding score, percentage inhibition … 24h” value was 94%.

As to ILRGSV[NLE]HK [I63], the “FP binding score, percentage inhibition of tracer peptide binding, 4h” value is listed as 74% and the “FP binding score, percentage inhibition … 24h” value is 89%.

Turning to IL[4-FPHE]GSVAHK [I94], the “FP binding score, percentage inhibition of tracer peptide binding, 4h” value is on record as 70% and the “FP binding score, percentage inhibition … 24h” value turned out to be 89%.

With I[AHA]RGSV[2-FUR]HK [I79], the “FP binding score, percentage inhibition of tracer peptide binding, 4h” value was found to be 77% and the “FP binding score, percentage inhibition … 24h” value worked out at 90%.

Consider I[AHA]RGSV[CSET]HK [I73], for which the “FP binding score, percentage inhibition of tracer peptide binding, 4h” value is on record as 74% and the “FP binding score, percentage inhibition … 24h” value is 90%.

For I[AHA]RGSV[CpALA]HK [I77], the “FP binding score, percentage inhibition of tracer peptide binding, 4h” value is given as 71% and the “FP binding score, percentage inhibition … 24h” value was found to be 89%.

Take I[AHA]RGSV[NLE]HK [I74]: the “FP binding score, percentage inhibition of tracer peptide binding, 4h” value stood at 77% and the “FP binding score, percentage inhibition … 24h” value is on record as 92%.

I[AHA][2-AOC]GSVAHK [I59]: the “FP binding score, percentage inhibition of tracer peptide binding, 4h” value is reported as 71% and the “FP binding score, percentage inhibition … 24h” value is reported as 91%.

I[AHA][4-FPHE]GSVAHK [I87]: the “FP binding score, percentage inhibition of tracer peptide binding, 4h” value is 73% and the “FP binding score, percentage inhibition … 24h” value turned out to be 91%.

For I[AHA][CHA]GSVAHK [I89], the “FP binding score, percentage inhibition of tracer peptide binding, 4h” value came out at 75% and the “FP binding score, percentage inhibition … 24h” value is 91%.

I[AHA][CSME]GSVAHK [I86]: the “FP binding score, percentage inhibition of tracer peptide binding, 4h” value worked out at 71% and the “FP binding score, percentage inhibition … 24h” value turned out to be 89%.

With I[AHA][CpALA]GSVAHK [I83], the “FP binding score, percentage inhibition of tracer peptide binding, 4h” value is 70% and the “FP binding score, percentage inhibition … 24h” value was determined as 89%.

On to I[AHA][NLE]GSVAHK [I58], for which the “FP binding score, percentage inhibition of tracer peptide binding, 4h” value was determined as 68% and the “FP binding score, percentage inhibition … 24h” value is listed as 89%.

As for I[AHA][PRG]GSVAHK [I84], the “FP binding score, percentage inhibition of tracer peptide binding, 4h” value is reported as 71% and the “FP binding score, percentage inhibition … 24h” value is on record as 89%.

In the case of I[AHA][SOME]GSVAHK [I85], the “FP binding score, percentage inhibition of tracer peptide binding, 4h” value turned out to be 69% and the “FP binding score, percentage inhibition … 24h” value is recorded as 88%.

In the case of I[OrnN2]RGSVAHK [I49], the “FP binding score, percentage inhibition of tracer peptide binding, 4h” value is 71% and the “FP binding score, percentage inhibition … 24h” value came to 90%.

For the substance RMVLSAFDEK [R4], the “FP binding score, percentage inhibition of tracer peptide binding, 4h” value came out at 61% and the “FP binding score, percentage inhibition … 24h” value is reported as 69%.

Turning to RMVLSAFDER [R WT, reference compound], the “FP binding score, percentage inhibition of tracer peptide binding, 4h” value was 18% and the “FP binding score, percentage inhibition … 24h” value came out at 6%.

In the case of RMVLSAF[2-AOC]ER [R38], the “FP binding score, percentage inhibition of tracer peptide binding, 4h” value stood at 69% and the “FP binding score, percentage inhibition … 24h” value worked out at 75%.

On to RMVLSAF[4-FPHE]ER [R40], for which the “FP binding score, percentage inhibition of tracer peptide binding, 4h” value is reported as 63% and the “FP binding score, percentage inhibition … 24h” value is given as 57%.

As for RMVLSAF[AHA]ER [R81], the “FP binding score, percentage inhibition of tracer peptide binding, 4h” value is 71% and the “FP binding score, percentage inhibition … 24h” value stood at 76%.

Turning to RMVLSAF[CSET]ER [R37], the “FP binding score, percentage inhibition of tracer peptide binding, 4h” value is recorded as 60% and the “FP binding score, percentage inhibition … 24h” value came to 60%. In addition, the “FP binding score HLA-A*0301, percentage inhibition, 4h” value (after 4h) is 60%. Besides, for the setting “after 24h”, the “FP binding score HLA-A*0301, percentage inhibition, 24h” value is 60%.
